Experimental data reported in article PMC7785020, “A unique hormonal recognition feature of the human glucagon-like peptide-2 receptor” (Cell Research, 2020).
Where a chain is given by its changes, count along the chain named.

What was measured:
GLP-2R R242^ECL1A = biological target: T1, GLP-2R R242^ECL1A (Homo sapiens, UniProt O95838, R242A); assay: radioligand competition binding, R242^ECL1A; parameters: WT (1–553); expressed in transfected cells; conditions: COS-7, R242^ECL1A; [^125I]GLP-2(1–33, M10Y) 10–15 pM, 4 h, 4 °C; mean ± SEM, n ≥ 3 in duplicate
T1 sequence (O95838 1-553 R242A): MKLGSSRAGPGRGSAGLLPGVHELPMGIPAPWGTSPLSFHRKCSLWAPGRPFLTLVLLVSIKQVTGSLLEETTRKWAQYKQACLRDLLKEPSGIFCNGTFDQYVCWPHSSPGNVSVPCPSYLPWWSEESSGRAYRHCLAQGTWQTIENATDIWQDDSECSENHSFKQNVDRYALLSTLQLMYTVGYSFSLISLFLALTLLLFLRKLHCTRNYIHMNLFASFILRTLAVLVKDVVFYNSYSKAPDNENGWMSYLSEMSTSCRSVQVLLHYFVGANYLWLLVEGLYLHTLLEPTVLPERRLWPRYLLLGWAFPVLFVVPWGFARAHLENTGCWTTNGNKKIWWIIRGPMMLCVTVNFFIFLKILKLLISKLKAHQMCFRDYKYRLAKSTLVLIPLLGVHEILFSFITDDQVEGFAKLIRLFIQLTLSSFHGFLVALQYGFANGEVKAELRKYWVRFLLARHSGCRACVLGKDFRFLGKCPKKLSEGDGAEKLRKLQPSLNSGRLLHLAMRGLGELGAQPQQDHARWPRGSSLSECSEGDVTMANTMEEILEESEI
Procedure: (§1) A stepwise oxidation reaction was performed by addition of 6 aliquots of 5 µL ChloramineT (30 µL/mL) with a 1-min interval during constant stirring. The reaction was terminated by the addition of 400 µL phase A (0.1% trifluoracetic acid) before being fractionated into 1 mL volume by reverse-phase high-performance liquid chromatography (RP-HPLC, Waters 600 SimiPrep system) on a C18 column. The iodinated protein was […] by increasing concentrations of phase B (Acetonitrile + 0.1% TFA) and tested for competitive binding ability.
(§2) One day before transfection, the COS-7 cells were seeded in 75 cm^2 culture flasks (3 million cells/flask) in DMEM, containing 3.9 g/L NaHCO3 and supplemented with 10% FBS, 1% L-glutamine, 180 units/mL penicillin and 45 µg/mL streptomycin. After an overnight culture at 37 °C, 10% CO2 and 95% air humidity, the cells were transiently transfected with different GLP-2R constructs or pcDNA3.1 vector as previously described.[52] Following 24-h incubation, the cells were transferred to Costa® microtiter plates (150,000 cells/well, PerkinElmer) to achieve a 5%–10% specific binding. […] The cells were then washed twice in binding buffer (4 °C), lysed and counted for radioactivity using a Wallac Gamma Counter (PerkinElmer).

GLP-2R WT (1–553) = biological target: T2, GLP-2R WT (1–553) (Homo sapiens, UniProt O95838); assay: radioligand competition binding, WT; conditions: COS-7, WT (1–553); [^125I]GLP-2(1–33, M10Y) 10–15 pM, 4 h, 4 °C; mean ± SEM, n ≥ 3 in duplicate
T2 construct: WT (1–553); expressed in transfected cells; host or cells: COS-7
Procedure: as §1, §2

GLP-2R Y182^1.43A = biological target: T3, GLP-2R Y182^1.43A (Homo sapiens, UniProt O95838, Y182A); assay: radioligand competition binding, Y182^1.43A; parameters: WT (1–553); expressed in transfected cells; conditions: COS-7, Y182^1.43A; [^125I]GLP-2(1–33, M10Y) 10–15 pM, 4 h, 4 °C; mean ± SEM, n ≥ 3 in duplicate
T3 sequence (O95838 1-553 Y182A): T1 sequence (O95838 1-553 R242A) with Y182A, A242R
Procedure: as §1, §2

GLP-2R W340^5.36A = biological target: T4, GLP-2R W340^5.36A (Homo sapiens, UniProt O95838, W340A); assay: radioligand competition binding, W340^5.36A; parameters: WT (1–553); expressed in transfected cells; conditions: COS-7, W340^5.36A; [^125I]GLP-2(1–33, M10Y) 10–15 pM, 4 h, 4 °C; mean ± SEM, n ≥ 3 in duplicate
T4 sequence (O95838 1-553 W340A): T1 sequence (O95838 1-553 R242A) with A242R, W340A
Procedure: as §1, §2

T2 sequence (O95838 whole entry): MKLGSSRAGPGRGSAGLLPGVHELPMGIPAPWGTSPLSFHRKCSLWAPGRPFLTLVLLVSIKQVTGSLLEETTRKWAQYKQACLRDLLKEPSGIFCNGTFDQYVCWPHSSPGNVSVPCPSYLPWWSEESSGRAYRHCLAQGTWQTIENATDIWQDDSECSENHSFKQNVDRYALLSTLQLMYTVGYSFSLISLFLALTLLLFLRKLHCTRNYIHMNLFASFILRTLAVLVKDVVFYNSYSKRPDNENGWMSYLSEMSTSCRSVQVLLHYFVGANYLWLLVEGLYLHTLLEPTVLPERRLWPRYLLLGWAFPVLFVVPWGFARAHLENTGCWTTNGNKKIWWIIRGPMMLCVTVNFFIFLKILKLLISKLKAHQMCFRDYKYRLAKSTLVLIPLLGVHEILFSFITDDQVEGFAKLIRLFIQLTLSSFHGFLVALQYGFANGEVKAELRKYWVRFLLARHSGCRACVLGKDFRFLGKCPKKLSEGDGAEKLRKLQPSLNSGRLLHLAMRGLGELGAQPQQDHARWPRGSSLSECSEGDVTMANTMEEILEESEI

CC[C@H](C)[C@H](NC(=O)[C@H](Cc1ccccc1)NC(=O)[C@H](CC(=O)O)NC(=O)[C@H](CCCNC(=N)N)NC(=O)[C@H](C)NC(=O)[C@H](C)NC(=O)[C@H](CC(C)C)NC(=O)[C@H](CC(N)=O)NC(=O)[C@H](CC(=O)O)NC(=O)[C@H](CC(C)C)NC(=O)[C@@H](NC(=O)[C@@H](NC(=O)[C@H](CC(N)=O)NC(=O)[C@H](CCSC)NC(=O)[C@H](CCC(=O)O)NC(=O)[C@H](CC(=O)O)NC(=O)[C@H](CO)NC(=O)[C@H](Cc1ccccc1)NC(=O)[C@H](CO)NC(=O)CNC(=O)[C@H](CC(=O)O)NC(=O)[C@H](C)NC(=O)[C@@H](N)Cc1c[nH]cn1)[C@@H](C)O)[C@@H](C)CC)C(=O)N[C@@H](CC(N)=O)C(=O)N[C@@H](Cc1c[nH]c2ccccc12)C(=O)N[C@@H](CC(C)C)C(=O)N[C@H](C(=O)N[C@@H](CCC(N)=O)C(=O)N[C@H](C(=O)N[C@@H](CCCCN)C(=O)N[C@H](C(=O)N[C@H](C(=O)N[C@@H](CC(=O)O)C(=O)O)[C@@H](C)O)[C@@H](C)CC)[C@@H](C)O)[C@@H](C)CC [Human GLP-2 (1–33)]
% Binding of WT (GLP-2R R242^ECL1A): 4.2 ± 0.6 % | % Binding of WT (GLP-2R WT (1–553)): 99.2 ± 2.3% | % Binding of WT (GLP-2R Y182^1.43A): 3.4 ± 1.0 % | % Binding of WT (GLP-2R W340^5.36A): 7.3 ± 0.6 %

CC[C@H](C)[C@H](NC(=O)[C@H](Cc1ccccc1)NC(=O)[C@H](CC(=O)O)NC(=O)[C@H](CCCNC(=N)N)NC(=O)[C@H](C)NC(=O)[C@H](C)NC(=O)[C@H](CC(C)C)NC(=O)[C@H](CC(N)=O)NC(=O)[C@H](CC(=O)O)NC(=O)[C@H](CC(C)C)NC(=O)[C@@H](NC(=O)[C@@H](NC(=O)[C@H](CC(N)=O)NC(=O)[C@H](CCSC)NC(=O)[C@H](CCC(=O)O)NC(=O)[C@H](CC(=O)O)NC(=O)[C@H](CO)NC(=O)[C@H](Cc1ccccc1)NC(=O)[C@H](CO)NC(=O)CNC(=O)[C@H](CC(=O)O)NC(=O)CNC(=O)[C@@H](N)Cc1c[nH]cn1)[C@@H](C)O)[C@@H](C)CC)C(=O)N[C@@H](CC(N)=O)C(=O)N[C@@H](Cc1c[nH]c2ccccc12)C(=O)N[C@@H](CC(C)C)C(=O)N[C@H](C(=O)N[C@@H](CCC(N)=O)C(=O)N[C@H](C(=O)N[C@@H](CCCCN)C(=O)N[C@H](C(=O)N[C@H](C(=O)N[C@@H](CC(=O)O)C(=O)O)[C@@H](C)O)[C@@H](C)CC)[C@@H](C)O)[C@@H](C)CC [Teduglutide]
% Binding of WT (GLP-2R R242^ECL1A): 5.1 ± 1.5 % | % Binding of WT (GLP-2R WT (1–553)): 99.7 ± 1.9% | % Binding of WT (GLP-2R Y182^1.43A): 3.2 ± 1.3 % | % Binding of WT (GLP-2R W340^5.36A): 8.6 ± 1.8 %
